Experimental data reported in the NIST ThermoML archive (doi:10.1016/j.jct.2011.12.035).

Assay: xn = mol fraction of the nth substance listed
Details: Gas, Buoyancy - hydrostatic balance with magnetic suspension - one sinker

N#N [nitrogen] + O=C=O
Details	mass density [kg/m3]
324.98 K, 10004 kPa, x2 = 0.501	153.908
324.98 K, 11001 kPa, x2 = 0.501	171.162
324.98 K, 12005 kPa, x2 = 0.501	188.662
324.98 K, 13008 kPa, x2 = 0.501	206.25
324.98 K, 14011 kPa, x2 = 0.501	223.826
324.98 K, 14991 kPa, x2 = 0.501	240.922
324.98 K, 16018 kPa, x2 = 0.501	258.66
324.98 K, 17012 kPa, x2 = 0.501	275.602
324.98 K, 18018 kPa, x2 = 0.501	292.404
324.98 K, 19023 kPa, x2 = 0.501	308.813
324.98 K, 19436 kPa, x2 = 0.501	315.426
349.95 K, 1995.5 kPa, x2 = 0.2	21.523
349.95 K, 3995.9 kPa, x2 = 0.2	43.283
349.95 K, 5996.5 kPa, x2 = 0.2	65.117
349.95 K, 7996.2 kPa, x2 = 0.2	86.91
349.95 K, 9978.8 kPa, x2 = 0.2	108.381
349.95 K, 11996 kPa, x2 = 0.2	129.976
349.95 K, 13995 kPa, x2 = 0.2	151.019
349.95 K, 15999 kPa, x2 = 0.2	171.67
349.95 K, 17993 kPa, x2 = 0.2	191.695
349.95 K, 19820 kPa, x2 = 0.2	209.531
349.96 K, 983.48 kPa, x2 = 0.501	12.303
349.96 K, 1988.3 kPa, x2 = 0.501	25.152
349.96 K, 2996.4 kPa, x2 = 0.501	38.326
349.96 K, 3997 kPa, x2 = 0.501	51.667
349.96 K, 4995.9 kPa, x2 = 0.501	65.24
349.96 K, 5996.2 kPa, x2 = 0.501	79.074
349.96 K, 6995.9 kPa, x2 = 0.501	93.129
349.96 K, 7995.5 kPa, x2 = 0.501	107.379
349.96 K, 8996.2 kPa, x2 = 0.501	121.83
349.96 K, 9996.3 kPa, x2 = 0.501	136.421
349.96 K, 10998 kPa, x2 = 0.501	151.155
349.96 K, 11997 kPa, x2 = 0.501	165.911
349.96 K, 12998 kPa, x2 = 0.501	180.741
349.96 K, 14000 kPa, x2 = 0.501	195.573
349.96 K, 14998 kPa, x2 = 0.501	210.29
349.96 K, 15995 kPa, x2 = 0.501	224.908
349.96 K, 16996 kPa, x2 = 0.501	239.453
349.96 K, 17996 kPa, x2 = 0.501	253.79
349.96 K, 18997 kPa, x2 = 0.501	267.945
349.96 K, 19977 kPa, x2 = 0.501	281.556
374.94 K, 981.92 kPa, x2 = 0.2	9.845
374.94 K, 1992.4 kPa, x2 = 0.2	19.995
374.94 K, 3995.7 kPa, x2 = 0.2	40.155
374.94 K, 5995.1 kPa, x2 = 0.2	60.236
374.94 K, 7995.3 kPa, x2 = 0.2	80.217
374.94 K, 9993 kPa, x2 = 0.2	99.987
374.94 K, 11990 kPa, x2 = 0.2	119.489
374.94 K, 13988 kPa, x2 = 0.2	138.676
374.94 K, 16023 kPa, x2 = 0.2	157.817
374.94 K, 17847 kPa, x2 = 0.2	174.574
374.94 K, 19903 kPa, x2 = 0.2	192.989
374.95 K, 987.06 kPa, x2 = 0.501	11.492
374.95 K, 1987.8 kPa, x2 = 0.501	23.329
374.95 K, 2995.7 kPa, x2 = 0.501	35.439
374.95 K, 3994.8 kPa, x2 = 0.501	47.603
374.95 K, 4993.3 kPa, x2 = 0.501	59.918
374.95 K, 5994.6 kPa, x2 = 0.501	72.415
374.95 K, 6995 kPa, x2 = 0.501	85.031
374.95 K, 8053.6 kPa, x2 = 0.501	98.499
374.95 K, 8965.3 kPa, x2 = 0.501	110.186
374.95 K, 9995.9 kPa, x2 = 0.501	123.471
374.95 K, 10995 kPa, x2 = 0.501	136.416
374.95 K, 11992 kPa, x2 = 0.501	149.335
374.95 K, 12992 kPa, x2 = 0.501	162.294
374.95 K, 13995 kPa, x2 = 0.501	175.285
374.95 K, 14994 kPa, x2 = 0.501	188.172
374.95 K, 15990 kPa, x2 = 0.501	200.942
374.95 K, 16990 kPa, x2 = 0.501	213.677
374.95 K, 17988 kPa, x2 = 0.501	226.253
374.95 K, 19119 kPa, x2 = 0.501	240.354
374.95 K, 19941 kPa, x2 = 0.501	250.44
400.01 K, 996.68 kPa, x2 = 0.2	9.356
400.01 K, 1978.2 kPa, x2 = 0.2	18.57
400.01 K, 3994 kPa, x2 = 0.2	37.452
400.01 K, 5994.7 kPa, x2 = 0.2	56.097
400.01 K, 7993.8 kPa, x2 = 0.2	74.576
400.01 K, 9990.6 kPa, x2 = 0.2	92.826
400.01 K, 11990 kPa, x2 = 0.2	110.835
400.01 K, 13987 kPa, x2 = 0.2	128.512
400.01 K, 15981 kPa, x2 = 0.2	145.821
400.01 K, 17979 kPa, x2 = 0.2	162.772
400.01 K, 19979 kPa, x2 = 0.2	179.326
400.02 K, 975.89 kPa, x2 = 0.501	10.626
400.02 K, 1987.6 kPa, x2 = 0.501	21.767
400.02 K, 2995.6 kPa, x2 = 0.501	32.992
400.02 K, 3980.9 kPa, x2 = 0.501	44.058
400.02 K, 4993.2 kPa, x2 = 0.501	55.527
400.02 K, 5994.2 kPa, x2 = 0.501	66.95
400.02 K, 6991.4 kPa, x2 = 0.501	78.405
400.02 K, 7992.4 kPa, x2 = 0.501	89.956
400.02 K, 8994.6 kPa, x2 = 0.501	101.571
400.02 K, 9979.8 kPa, x2 = 0.501	113.018
400.02 K, 10987 kPa, x2 = 0.501	124.751
400.02 K, 11986 kPa, x2 = 0.501	136.359
400.02 K, 12984 kPa, x2 = 0.501	147.944
400.02 K, 13986 kPa, x2 = 0.501	159.545
400.02 K, 14984 kPa, x2 = 0.501	171.05
400.02 K, 15985 kPa, x2 = 0.501	182.526
400.02 K, 16984 kPa, x2 = 0.501	193.894
400.02 K, 17965 kPa, x2 = 0.501	204.97
400.02 K, 18983 kPa, x2 = 0.501	216.347
400.02 K, 19960 kPa, x2 = 0.501	227.147
